What is called IC50 is the concentration at which inhibition is half-maximal. High values mean a need for much substance, low ones inhibition by little substance.

Values joined by “and” are separate entries in the source; they are usually repeats but may differ in a detail not shown here. Equal entries are not always repeated. Where two headings read alike, the source gives them in different places.

Experiment [1] concerns the target receptor tyrosine kinase c-Met (Homo sapiens, UniProt P08581). The experiment is described as follows: In vitro c-Met kinase inhibitory activity. It is filed as biochemical. Conditions: two values per compound; for inhibition at 0.001 µM / inhibition at 0.01 µM / inhibition at 0.1 µM: read-out: c-Met Inhibitory rate (%). The source says: Experimental Example 3: Study of In Vitro c-Met Kinase Inhibitory Activity
Since the screening results of 369 kinase profiles of compound DC621044 has shown that the compound has a certain inhibitory activity on c-Met. We further screened some compounds for their inhibitory activity on c-Met kinase.

A further experiment concerns BaF3/TEL-AXL cells. Put plainly: Proliferation of BaF3/TEL-AXL cells. It is filed as cell-based. To be noted: for inhibition at 0.001 µM / inhibition at 0.01 µM / inhibition at 0.1 µM: BaF3/TEL-AXL. The source says: Experimental Example 4: Effect of the Compound on the Proliferation Effect of BaF3/TEL-AXL Cells
Based on the above-mentioned enzyme activity research results, we further explored the effect of the compound on cell proliferation mediated by receptor tyrosine kinase AXL.

Experiment [2] has as its target T1, receptor tyrosine kinase AXL (Homo sapiens, UniProt P30530).
T1 construct: 50 μL of AXL kinase domain recombinant protein diluted in reaction buffer was added to start the reaction; made in house; host or cells: insect cells (baculovirus expression system)
T1 sequence (P30530 536-807 limits assumed): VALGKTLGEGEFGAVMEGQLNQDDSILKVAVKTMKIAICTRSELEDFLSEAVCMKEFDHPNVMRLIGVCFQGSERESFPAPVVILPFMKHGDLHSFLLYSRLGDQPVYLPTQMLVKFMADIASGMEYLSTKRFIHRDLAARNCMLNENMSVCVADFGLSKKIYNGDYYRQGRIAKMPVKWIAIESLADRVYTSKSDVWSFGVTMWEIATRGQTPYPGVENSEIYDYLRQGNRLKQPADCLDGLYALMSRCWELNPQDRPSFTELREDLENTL
The experiment is described as follows: Enzyme activity of receptor tyrosine kinase AXL (ELISA). To be noted: for inhibition at 0.001 µM: 1 nM; for inhibition at 0.001 µM / inhibition at 0.01 µM / inhibition at 0.1 µM: read-out: AXL activity Inhibitory rate(%); for inhibition at 0.01 µM: 10 nM; for inhibition at 0.1 µM: 100 nM. Format: biochemical. As for the experimental part: Detection method: Enzyme-linked immunosorbent assay (ELISA)
Tested receptor tyrosine kinase: AXL
The full-wavelength microplate reader for experiment reading was a product of Molecular Device, model: SpectraMax 190; the experiment water was distilled water produced by Sinopharm Group.
Compound preparation: The compounds were centrifuged at 12,000 g for 5 min, and DMSO was added to prepare a 10^−2M stock solution, vortexed evenly and sonicated for 10 min for use, and stored at −40° C. During the test, the compound was diluted from the stock solution to 100 times the tested concentration with DMSO (the DMSO concentration in the system was 1%).
1. […] Discard the liquid from the well. The plate was washed and washed three times with T-PBS (0.1% Tween-20 in potassium-free PBS, 200 μL/well) for 5 minutes each time.
2. 49 μL of ATP solution diluted with reaction buffer (50 mM HEPES pH 7.4, 50 mM MgCl2, 0.5 mM MnCl2, 0.2 mM Na3VO4, 1 mM DTT) was added to each well, and […] of the tested compound was added to each well, and then 50 μL of AXL kinase domain recombinant protein diluted in reaction buffer was added to start the reaction. Two control wells without ATP were added in each experiment. (100 rpm) Reacted in 37° C. shaker for 1 hour. Discard the liquid from the well, and the plate was washed with T-PBS for three times.
3. […] Discard the liquid from the well, and the plate was washed with T-PBS for three times.
4. The horseradish peroxidase-labeled goat anti-mouse second antibody dilution (antibody diluted 1:2000 with BSA 5 mg/mL in T-PBS), 100 μL/well, and reacted in 37° C. shaker for 0.5 hours. Discard the liquid from the well, and the plate was washed with T-PBS for three times.
6. The reaction was quenched with 50 μL/well 2M […], and read at 490 nm using a tunable microplate reader VERSAmax.
The IC50 values were obtained by four-parameter regression analysis using the software supplied with the microplate reader.
On the technique in general: In an ELISA, binding on a coated surface is turned into a signal by an enzyme label.

Where [3] appears, read: 1 nM, two values per compound, 0.001 µM.
Where [4] appears, read: 10 nM, two values per compound, 0.01 µM.
[5] abbreviates: 100 nM, two values per compound, 0.1 µM.
[6] abbreviates: 1 nM, two values per compound, read-out: BaF3/TEL-AXL proliferation Inhibitory rate (%).
[7] abbreviates: 10 nM, two values per compound, read-out: BaF3/TEL-AXL proliferation Inhibitory rate (%).
Setting [8] is: 100 nM, two values per compound, read-out: BaF3/TEL-AXL proliferation Inhibitory rate (%).
Setting [9] is: concentration of 1 nM, read-out: inhibited the proliferation of BaF3/TEL-AXL cells.

receptor tyrosine kinase c-Met, sequence (P08581 25-1390): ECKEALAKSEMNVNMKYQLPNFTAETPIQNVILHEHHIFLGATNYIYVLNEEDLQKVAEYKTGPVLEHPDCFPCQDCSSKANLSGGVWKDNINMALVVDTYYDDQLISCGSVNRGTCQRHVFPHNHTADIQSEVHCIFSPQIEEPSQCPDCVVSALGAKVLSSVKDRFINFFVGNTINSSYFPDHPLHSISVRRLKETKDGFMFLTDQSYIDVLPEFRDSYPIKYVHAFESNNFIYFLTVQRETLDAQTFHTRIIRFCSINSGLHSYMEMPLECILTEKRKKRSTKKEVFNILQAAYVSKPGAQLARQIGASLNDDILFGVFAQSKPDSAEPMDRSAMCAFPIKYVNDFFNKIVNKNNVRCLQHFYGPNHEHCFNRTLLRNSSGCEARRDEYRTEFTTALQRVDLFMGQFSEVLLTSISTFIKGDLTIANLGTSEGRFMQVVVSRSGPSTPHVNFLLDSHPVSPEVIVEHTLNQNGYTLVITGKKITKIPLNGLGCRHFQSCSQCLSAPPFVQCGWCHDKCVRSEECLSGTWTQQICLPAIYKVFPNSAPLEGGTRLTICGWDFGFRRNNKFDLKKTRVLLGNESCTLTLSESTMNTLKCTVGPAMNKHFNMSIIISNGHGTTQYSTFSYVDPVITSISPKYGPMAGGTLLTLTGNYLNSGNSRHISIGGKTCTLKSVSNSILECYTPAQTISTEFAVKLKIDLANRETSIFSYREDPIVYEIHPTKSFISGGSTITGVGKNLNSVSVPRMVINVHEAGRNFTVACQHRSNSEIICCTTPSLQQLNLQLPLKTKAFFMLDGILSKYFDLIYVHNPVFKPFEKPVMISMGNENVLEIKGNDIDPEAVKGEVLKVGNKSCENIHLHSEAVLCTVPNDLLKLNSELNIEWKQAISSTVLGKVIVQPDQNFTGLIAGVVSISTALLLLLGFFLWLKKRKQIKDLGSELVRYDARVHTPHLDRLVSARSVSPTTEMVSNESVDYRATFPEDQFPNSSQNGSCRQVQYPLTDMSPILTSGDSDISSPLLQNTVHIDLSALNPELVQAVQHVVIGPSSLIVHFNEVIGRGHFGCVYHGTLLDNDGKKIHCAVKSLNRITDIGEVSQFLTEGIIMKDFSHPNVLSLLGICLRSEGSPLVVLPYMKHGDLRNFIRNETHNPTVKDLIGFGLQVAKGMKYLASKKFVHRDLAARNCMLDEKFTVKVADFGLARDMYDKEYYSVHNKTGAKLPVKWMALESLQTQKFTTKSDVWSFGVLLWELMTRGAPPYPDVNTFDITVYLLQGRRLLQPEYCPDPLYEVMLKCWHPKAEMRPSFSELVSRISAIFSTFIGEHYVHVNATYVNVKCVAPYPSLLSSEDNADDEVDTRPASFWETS

As for `COCCOc1cc2ncnc(Oc3ccc(NC(=O)c4c5n(n(-c6cc(F)ccc6F)c4=O)CCCC5)cc3F)c2cc1OCCOC` [DC621024, 1-(2,5-difluorophenyl)-N-(4-((6,7-bis(2-methoxyethoxy)quinazolin-4-yl)oxy)-3-fluorophenyl)-2-oxo-1,2,4,5,6,7-hexahydropyrazolo[1,5-a]pyridine-3-formamide], the “c-Met Inhibitory rate (%)” value in experiment [1] (1 nM, 0.001 µM) was determined as 53.5%; in experiment [1] (10 nM, 0.01 µM), 80.5%; in experiment [1] (100 nM, 0.1 µM), 100%. Also, the inhibition at 0.001 µM in experiment [1] (1 nM) is 40.5%; in the experiment with BaF3/TEL-AXL cells (setting [6]), 79.8%; in the experiment on BaF3/TEL-AXL cells (setting [9]), greater than 70%; in experiment [2] it was 29.9%. In addition, the inhibition at 0.01 µM came to 66.8% in experiment [1] (10 nM), 81% in the experiment on BaF3/TEL-AXL cells (setting [7]) and 72.5% in experiment [2]. The inhibition at 0.1 µM in experiment [1] (100 nM) was determined as 99.4%; with BaF3/TEL-AXL cells (setting [8]), 85%; in experiment [2] it was 100%. In addition, the “BaF3/TEL-AXL proliferation Inhibitory rate (%)” value in the experiment on BaF3/TEL-AXL cells (setting [3]) was 75.0%; in the experiment with BaF3/TEL-AXL cells (setting [4]), 80.5%; in the experiment on BaF3/TEL-AXL cells (setting [5]), 81.3%. In addition, in experiment [2], the 50% inhibitory concentration (IC50) amounted to 8.7 ± 1 nM.

For the molecule `COCCOc1cc2ncnc(Oc3ccc(NC(=O)c4c5n(n(-c6ccccc6)c4=O)CCCC5)c(F)c3)c2cc1OCCOC` [DC621051, N-(4-((6,7-bis(2-methoxyethoxy)quinazolin-4-yl)oxy)-2-fluorophenyl)-2-oxo-1-phenyl-1,2,4,5,6,7-hexahydropyrazolo[1,5-a]pyridine-3-formamide], the “c-Met Inhibitory rate (%)” value was determined as 55.2% in experiment [1] (1 nM, 0.001 µM); 75.9% in experiment [1] (10 nM, 0.01 µM); 97.5% in experiment [1] (100 nM, 0.1 µM). In addition, the inhibition at 0.001 µM was 39.5% in experiment [1] (1 nM), 84.7% with BaF3/TEL-AXL cells (setting [6]), greater than 70% in the experiment with BaF3/TEL-AXL cells (setting [9]) and 8.2% in experiment [2]. In addition, the figures for the inhibition at 0.01 µM (in experiment [1] (10 nM); with BaF3/TEL-AXL cells (setting [7]); in experiment [2]) were 62.4%, 85.8% and 54.2%, respectively. Moreover, the results for the inhibition at 0.1 µM (in experiment [1] (100 nM); in the experiment with BaF3/TEL-AXL cells (setting [8]); in experiment [2]) were 93.9%, 86.7% and 100%, respectively. Further, the results for the “BaF3/TEL-AXL proliferation Inhibitory rate (%)” value with BaF3/TEL-AXL cells (setting [3]), in the experiment on BaF3/TEL-AXL cells (setting [4]) and in the experiment on BaF3/TEL-AXL cells (setting [5]) were 82.9%, 85.9% and 86.6%, respectively.

For `COCCOc1cc2ncnc(Oc3ccc(NC(=O)c4c5n(n(-c6cc(F)ccc6F)c4=O)CCCC5)c(F)c3)c2cc1OCCOC` [DC621054, 1-(2,5-difluorophenyl)-N-(4-((6,7-bis(2-methoxyethoxy)quinazolin-4-yl)oxy)-2-fluorophenyl)-2-oxo-1,2,4,5,6,7-hexahydropyrazolo[1,5-a]pyridine-3-formamide], the “c-Met Inhibitory rate (%)” value in experiment [1] (1 nM, 0.001 µM) is 60.0%; in experiment [1] (10 nM, 0.01 µM), 48.9% and 69.6%; in experiment [1] (100 nM, 0.1 µM) it was 100%. In addition, the inhibition at 0.001 µM in experiment [1] (1 nM) turned out to be 61.1%; in the experiment with BaF3/TEL-AXL cells (setting [6]) it was 79.6%; in experiment [2], 12.2%. For the same molecule, the results for the inhibition at 0.1 µM (in experiment [1] (100 nM); in the experiment with BaF3/TEL-AXL cells (setting [8]); in experiment [2]) were 94.1%, 84.7% and 95.9%, respectively. Moreover, the “BaF3/TEL-AXL proliferation Inhibitory rate (%)” value was determined as 81.8% in the experiment with BaF3/TEL-AXL cells (setting [3]), 82.5% in the experiment with BaF3/TEL-AXL cells (setting [4]) and 86.1% in the experiment on BaF3/TEL-AXL cells (setting [5]). Also, the inhibition at 0.01 µM is 82.8% with BaF3/TEL-AXL cells (setting [7]) and 58.2% in experiment [2].

With `COCCOc1cc2ncnc(Oc3ccc(NC(=O)c4c5n(n(-c6ccccc6F)c4=O)CCCC5)c(F)c3)c2cc1OCCOC` [DC621057, N-(4-((6,7-bis(2-methoxyethoxy)quinazolin-4-yl)oxy)-2-fluorophenyl)-1-(2-fluorophenyl)-2-oxo-1,2,4,5,6,7-hexahydropyrazolo[1,5-a]pyridine-3-formamide], the “c-Met Inhibitory rate (%)” value in experiment [1] (1 nM, 0.001 µM) is given as 51.3%; in experiment [1] (10 nM, 0.01 µM), 64.0%; in experiment [1] (100 nM, 0.1 µM) it was 95.9%. The values for the inhibition at 0.001 µM (in experiment [1] (1 nM); in the experiment on BaF3/TEL-AXL cells (setting [6]); in experiment [2]) were 34%, 69.5% and 16%, respectively. Further, the inhibition at 0.01 µM in experiment [1] (10 nM) came out at 55.2%; in the experiment with BaF3/TEL-AXL cells (setting [7]) it was 83.2%; in experiment [2], 55.1%. For the same molecule, the figures for the inhibition at 0.1 µM (in experiment [1] (100 nM); in the experiment with BaF3/TEL-AXL cells (setting [8]); in experiment [2]) were 94.6%, 87.5% and 91.9%, respectively. Moreover, the “BaF3/TEL-AXL proliferation Inhibitory rate (%)” value with BaF3/TEL-AXL cells (setting [3]) worked out at 76.6%; in the experiment with BaF3/TEL-AXL cells (setting [5]) it was 86.0%.

As for `O=C(Nc1ccc(Oc2ncnc3cc4c(cc23)OCCOCCOCCO4)c(F)c1)c1c2n(n(-c3ccc(F)cc3)c1=O)CCCC2` [DC621067, N-(3-fluoro-4-((7,8,10,11,13,14-hexahydro-[1,4,7,10]tetraoxacyclododecane [2,3-g]quinazolin-4-yl)oxy)phenyl)-1-(4-fluorophenyl)-2-oxo-1,2,4,5,6,7-hexahydropyrazolo[1,5-a]pyridine-3-formamide], the “BaF3/TEL-AXL proliferation Inhibitory rate (%)” value came to 74.8% in the experiment with BaF3/TEL-AXL cells (setting [3]), 85.4% in the experiment on BaF3/TEL-AXL cells (setting [4]) and 83.0% in the experiment on BaF3/TEL-AXL cells (setting [5]). Further, the inhibition at 0.001 µM in the experiment with BaF3/TEL-AXL cells (setting [6]) worked out at 80.6%; in experiment [2], 8.6%. Moreover, the inhibition at 0.01 µM in the experiment on BaF3/TEL-AXL cells (setting [7]) stood at 87.2%; in experiment [2] it was 54.5%. Further, the inhibition at 0.1 µM turned out to be 80.8% in the experiment with BaF3/TEL-AXL cells (setting [8]) and 89% in experiment [2].

Take `COCCOc1cc2ncnc(Oc3ccc(NC(=O)c4c5n(n(-c6ccccc6F)c4=O)CCCC5)cc3C(F)(F)F)c2cc1OCCOC` [DC621092, N-(4-((6,7-bis(2-methoxyethoxy)quinazolin-4-yl)oxy)-3-trifluoromethylphenyl)-1-(2-fluorophenyl)-2-oxo-1,2,4,5,6,7-hexahydropyrazolo[1,5-a]pyridine-3-formamide]: the “c-Met Inhibitory rate (%)” value in experiment [1] (1 nM, 0.001 µM) amounted to 16.8%; in experiment [1] (10 nM, 0.01 µM), 53.1%; in experiment [1] (100 nM, 0.1 µM), 89.8%. Besides, the values for the inhibition at 0.001 µM in experiment [1] (1 nM) and in experiment [2] were 25.3% and 4.8%, respectively. For the same molecule, the values for the inhibition at 0.01 µM in experiment [1] (10 nM) and in experiment [2] were 71.6% and 61%, respectively. Besides, the inhibition at 0.1 µM in experiment [1] (100 nM) was determined as 94.2%; in experiment [2] it was 78%.

For the molecule `COCCOc1cc2ncnc(Oc3ccc(NC(=O)c4c5n(n(-c6ccc(F)cc6)c4=O)CCCC5)cc3Cl)c2cc1OCCOC` [DC621100, N-(4-((6,7-bis(2-methoxyethoxy)quinazolin-4-yl)oxy)-3-chlorophenyl)-1-(4-fluorophenyl)-2-oxo-1,2,4,5,6,7-hexahydropyrazolo[1,5-a]pyridine-3-formamide], the “c-Met Inhibitory rate (%)” value in experiment [1] (10 nM, 0.01 µM) was 63.7% and 38.0%. For the same molecule, in experiment [1] (100 nM, 0.1 µM), the “c-Met Inhibitory rate (%)” value was 89.1%. Also, the inhibition at 0.1 µM in experiment [1] (100 nM) came to 94.4%. Moreover, in experiment [2], the inhibition at 0.001 µM amounted to 18.9%, the inhibition at 0.01 µM is 59.2% and the inhibition at 0.1 µM was 93%.

The values are drawn from patent US12497394B2, “Fused-cyclic pyrazolone formamide compound and preparation method therefor, pharmaceutical composition and use thereof” (SHANGHAI INSTITUTE OF MATERIA MEDICA, CHINESE ACADEMY OF …, priority 2018, dated 2025).
